Results as given in ChEMBL document CHEMBL1135126, “Identification of novel antifungal nonapeptides through the screening of combinatorial peptide libraries based on a hexapeptide motif” (Bioorg Med Chem Lett, 2002).
In brackets after ≈: the same amount, converted by molar mass. Where a SMILES comes first, the peptide text is derived from it. [ ]: non-standard residue; d: D form.

Key:
[1] = test system: Cryptococcus neoformans; experiment: Concentration that substantially inhibit the growth of Cryptococcus neoformans; type: functional
[2] = test system: Candida albicans; experiment: Concentration that substantially inhibit growth of Candida albicans; type: functional, organism-based

Structure (SMILES)	MIC [1] [µM]	IC50 [2] [µM]
CC[C@H](C)[C@H](NC(=O)[C@@H](Cc1ccccc1)NC(=O)[C@@H](Cc1c[nH]c2ccccc12)NC(=O)[C@@H](N)CCCN=C(N)N)C(=O)N[C@H](Cc1ccccc1)C(=O)N[C@@H](Cc1c[nH]cn1)C(=O)N[C@@H](CCCCN)C(=O)N[C@@H](CCCCN)C(=O)N[C@@H](Cc1c[nH]cn1)C(N)=O [listing 1 of 2 here]	2.36 (≈ 3.06 µg/mL)	–
CC[C@H](C)[C@H](NC(=O)[C@@H](Cc1ccccc1)NC(=O)[C@@H](Cc1c[nH]c2ccccc12)NC(=O)[C@@H](N)CCCN=C(N)N)C(=O)N[C@H](Cc1ccccc1)C(=O)N[C@@H](Cc1c[nH]cn1)C(=O)N[C@@H](CCCCN)C(=O)N[C@@H](CCCCN)C(=O)N[C@@H](CO)C(N)=O	2.45 (≈ 3.06 µg/mL)	1.77
CC[C@H](C)[C@H](NC(=O)[C@@H](Cc1ccccc1)NC(=O)[C@@H](Cc1c[nH]c2ccccc12)NC(=O)[C@@H](N)CCCN=C(N)N)C(=O)N[C@H](Cc1ccccc1)C(=O)N[C@@H](Cc1c[nH]cn1)C(=O)N[C@@H](CCCCN)C(=O)N[C@@H](CCCN=C(N)N)C(=O)N[C@@H](Cc1c[nH]cn1)C(N)=O	2.35 (≈ 3.12 µg/mL)	4.11
CC[C@H](C)[C@H](NC(=O)[C@@H](Cc1ccccc1)NC(=O)[C@@H](Cc1c[nH]c2ccccc12)NC(=O)[C@@H](N)CCCN=C(N)N)C(=O)N[C@H](Cc1ccccc1)C(=O)N[C@@H](Cc1c[nH]cn1)C(=O)N[C@@H](CCCCN)C(=O)N[C@@H](CCCN=C(N)N)C(=O)N[C@@H](Cc1c[nH]c2ccccc12)C(N)=O	4.54 (≈ 6.24 µg/mL)	6.35
CC[C@H](C)[C@H](NC(=O)[C@@H](Cc1ccccc1)NC(=O)[C@@H](Cc1c[nH]c2ccccc12)NC(=O)[C@@H](N)CCCN=C(N)N)C(=O)N[C@H](Cc1ccccc1)C(=O)N[C@@H](Cc1c[nH]cn1)C(=O)N[C@@H](CCCCN)C(=O)N[C@@H](CCCN=C(N)N)C(=O)N[C@H](C(N)=O)[C@@H](C)O	4.84 (≈ 6.24 µg/mL)	5.97
CC[C@H](C)[C@H](NC(=O)[C@@H](Cc1ccccc1)NC(=O)[C@@H](Cc1c[nH]c2ccccc12)NC(=O)[C@@H](N)CCCN=C(N)N)C(=O)N[C@H](Cc1ccccc1)C(=O)N[C@@H](Cc1c[nH]cn1)C(=O)N[C@@H](CCCCN)C(=O)N[C@@H](CCCN=C(N)N)C(=O)N[C@@H](CCC(=O)O)C(N)=O	4.74 (≈ 6.25 µg/mL)	4.23
CC[C@H](C)[C@H](NC(=O)[C@@H](Cc1ccccc1)NC(=O)[C@@H](Cc1c[nH]c2ccccc12)NC(=O)[C@@H](N)CCCN=C(N)N)C(=O)N[C@H](Cc1ccccc1)C(=O)N[C@@H](Cc1c[nH]cn1)C(=O)N[C@@H](CCCCN)C(=O)N[C@@H](CCCCN)C(=O)N[C@@H](CC(=O)O)C(N)=O [listing 1 of 2 here]	4.8 (≈ 6.12 µg/mL)	–
CC[C@H](C)[C@H](NC(=O)[C@@H](Cc1ccccc1)NC(=O)[C@@H](Cc1c[nH]c2ccccc12)NC(=O)[C@@H](N)CCCN=C(N)N)C(=O)N[C@H](Cc1ccccc1)C(=O)N[C@@H](Cc1c[nH]cn1)C(=O)N[C@@H](CCCCN)C(=O)N[C@@H](CCCN=C(N)N)C(=O)N[C@@H](Cc1ccc(O)cc1)C(N)=O	4.62 (≈ 6.24 µg/mL)	7.08
CC[C@H](C)[C@H](NC(=O)[C@@H](Cc1ccccc1)NC(=O)[C@@H](Cc1c[nH]c2ccccc12)NC(=O)[C@@H](N)CCCN=C(N)N)C(=O)N[C@H](Cc1ccccc1)C(=O)N[C@@H](Cc1c[nH]cn1)C(=O)N[C@@H](CCCCN)C(=O)N[C@@H](CCCN=C(N)N)C(=O)N[C@@H](CCCCN)C(N)=O	2.36 (≈ 3.11 µg/mL)	3.34
CC[C@H](C)[C@H](NC(=O)[C@@H](Cc1ccccc1)NC(=O)[C@@H](Cc1c[nH]c2ccccc12)NC(=O)[C@@H](N)CCCN=C(N)N)C(=O)N[C@H](Cc1ccccc1)C(=O)N[C@@H](Cc1c[nH]cn1)C(=O)N[C@@H](CCCCN)C(=O)N[C@@H](CCCCN)C(=O)N[C@@H](Cc1c[nH]cn1)C(N)=O [listing 2 of 2 here]	–	1.9
CC[C@H](C)[C@H](NC(=O)[C@@H](Cc1ccccc1)NC(=O)[C@@H](Cc1c[nH]c2ccccc12)NC(=O)[C@@H](N)CCCN=C(N)N)C(=O)N[C@H](Cc1ccccc1)C(=O)N[C@@H](Cc1c[nH]cn1)C(=O)N[C@@H](CCCCN)C(=O)N[C@@H](CCCCN)C(=O)N[C@@H](Cc1ccccc1)C(N)=O [listing 1 of 2 here]	> 7	–
CC[C@H](C)[C@H](NC(=O)[C@@H](Cc1ccccc1)NC(=O)[C@@H](Cc1c[nH]c2ccccc12)NC(=O)[C@@H](N)CCCN=C(N)N)C(=O)N[C@H](Cc1ccccc1)C(=O)N[C@@H](Cc1c[nH]cn1)C(=O)N[C@@H](CCCCN)C(=O)N[C@@H](CCCCN)C(=O)N[C@@H](CCC(=O)O)C(N)=O [listing 1 of 2 here]	–	3.57
CC[C@H](C)[C@H](NC(=O)[C@@H](Cc1ccccc1)NC(=O)[C@@H](Cc1c[nH]c2ccccc12)NC(=O)[C@@H](N)CCCN=C(N)N)C(=O)N[C@H](Cc1ccccc1)C(=O)N[C@@H](Cc1c[nH]cn1)C(=O)N[C@@H](CCCCN)C(=O)N[C@@H](CCCCN)C(=O)N[C@@H](C)C(N)=O [listing 1 of 2 here]	–	3.17
CC[C@H](C)[C@H](NC(=O)[C@@H](Cc1ccccc1)NC(=O)[C@@H](Cc1c[nH]c2ccccc12)NC(=O)[C@@H](N)CCCN=C(N)N)C(=O)N[C@H](Cc1ccccc1)C(=O)N[C@@H](Cc1c[nH]cn1)C(=O)N[C@@H](CCCCN)C(=O)N[C@@H](CCCCN)C(=O)NCC(N)=O [listing 1 of 2 here]	–	2.77
NCCCC[C@H](NC(=O)[C@@H](Cc1ccccc1)NC(=O)[C@H](Cc1ccccc1)NC(=O)[C@@H](Cc1ccccc1)NC(=O)[C@@H](Cc1c[nH]c2ccccc12)NC(=O)[C@@H](N)Cc1c[nH]cn1)C(N)=O (H-H[dW][dF]F[dF]K-NH2)	6.81 (≈ 6.2 µg/mL)	–
CC[C@H](C)[C@H](NC(=O)[C@@H](Cc1ccccc1)NC(=O)[C@@H](Cc1c[nH]c2ccccc12)NC(=O)[C@@H](N)CCCN=C(N)N)C(=O)N[C@H](Cc1ccccc1)C(=O)N[C@@H](Cc1c[nH]cn1)C(=O)N[C@@H](CCCCN)C(=O)N[C@@H](CCCCN)C(=O)N[C@@H](C)C(N)=O [listing 2 of 2 here]	2.48 (≈ 3.05 µg/mL)	–
CC[C@H](C)[C@H](NC(=O)[C@@H](Cc1ccccc1)NC(=O)[C@@H](Cc1c[nH]c2ccccc12)NC(=O)[C@@H](N)CCCN=C(N)N)C(=O)N[C@H](Cc1ccccc1)C(=O)N[C@@H](Cc1c[nH]cn1)C(=O)N[C@@H](CCCCN)C(=O)N[C@@H](CCCCN)C(=O)N[C@@H](CC(=O)O)C(N)=O [listing 2 of 2 here]	–	3.52
CC[C@H](C)[C@H](NC(=O)[C@@H](Cc1ccccc1)NC(=O)[C@@H](Cc1c[nH]c2ccccc12)NC(=O)[C@@H](N)CCCN=C(N)N)C(=O)N[C@H](Cc1ccccc1)C(=O)N[C@@H](Cc1c[nH]cn1)C(=O)N[C@@H](CCCCN)C(=O)N[C@@H](CCCCN)C(=O)NCC(N)=O [listing 2 of 2 here]	2.51 (≈ 3.06 µg/mL)	–
CC[C@H](C)[C@H](NC(=O)[C@@H](Cc1ccccc1)NC(=O)[C@@H](Cc1c[nH]c2ccccc12)NC(=O)[C@@H](N)CCCN=C(N)N)C(=O)N[C@H](Cc1ccccc1)C(=O)N[C@@H](Cc1c[nH]cn1)C(=O)N[C@@H](CCCCN)C(=O)N[C@@H](CCCCN)C(=O)N[C@@H](CCC(=O)O)C(N)=O [listing 2 of 2 here]	2.37 (≈ 3.06 µg/mL)	–
CC[C@H](C)[C@H](NC(=O)[C@@H](Cc1ccccc1)NC(=O)[C@@H](Cc1c[nH]c2ccccc12)NC(=O)[C@@H](N)CCCN=C(N)N)C(=O)N[C@H](Cc1ccccc1)C(=O)N[C@@H](Cc1c[nH]cn1)C(N)=O (H-R[dW][dF]I[dF]H-NH2)	6.86 (≈ 6.2 µg/mL)	–
CC[C@H](C)[C@H](NC(=O)[C@@H](Cc1ccccc1)NC(=O)[C@@H](Cc1c[nH]c2ccccc12)NC(=O)[C@@H](N)CCCN=C(N)N)C(=O)N[C@H](Cc1ccccc1)C(=O)N[C@@H](Cc1c[nH]cn1)C(=O)N[C@@H](CCCCN)C(=O)N[C@@H](CCCCN)C(=O)N[C@@H](Cc1ccccc1)C(N)=O [listing 2 of 2 here]	–	> 7
